Data reported in patent US20160016929A1, “PRO-DRUG COMPOUNDS” (PROXIMAGEN LIMITED, priority 2013, published 2016).
Read-outs that look alike come from different tables or passages of the source.

Key:
hERG K+ channel = molecular target: T1, hERG K+ channel (Homo sapiens, UniProt Q12809); assay: hERG assay, IonWorks patch clamp electrophysiology; assay type: cell-based; conditions: human, pH 7.3; 11 uM; Chinese Hamster Lung cell line stably expressing hERG
T1 construct: a Chinese Hamster Lung cell line stably expressing the full length hERG channel; expressed in transfected cells; host or cells: Chinese Hamster Lung cell line
T1 sequence (Q12809 whole entry): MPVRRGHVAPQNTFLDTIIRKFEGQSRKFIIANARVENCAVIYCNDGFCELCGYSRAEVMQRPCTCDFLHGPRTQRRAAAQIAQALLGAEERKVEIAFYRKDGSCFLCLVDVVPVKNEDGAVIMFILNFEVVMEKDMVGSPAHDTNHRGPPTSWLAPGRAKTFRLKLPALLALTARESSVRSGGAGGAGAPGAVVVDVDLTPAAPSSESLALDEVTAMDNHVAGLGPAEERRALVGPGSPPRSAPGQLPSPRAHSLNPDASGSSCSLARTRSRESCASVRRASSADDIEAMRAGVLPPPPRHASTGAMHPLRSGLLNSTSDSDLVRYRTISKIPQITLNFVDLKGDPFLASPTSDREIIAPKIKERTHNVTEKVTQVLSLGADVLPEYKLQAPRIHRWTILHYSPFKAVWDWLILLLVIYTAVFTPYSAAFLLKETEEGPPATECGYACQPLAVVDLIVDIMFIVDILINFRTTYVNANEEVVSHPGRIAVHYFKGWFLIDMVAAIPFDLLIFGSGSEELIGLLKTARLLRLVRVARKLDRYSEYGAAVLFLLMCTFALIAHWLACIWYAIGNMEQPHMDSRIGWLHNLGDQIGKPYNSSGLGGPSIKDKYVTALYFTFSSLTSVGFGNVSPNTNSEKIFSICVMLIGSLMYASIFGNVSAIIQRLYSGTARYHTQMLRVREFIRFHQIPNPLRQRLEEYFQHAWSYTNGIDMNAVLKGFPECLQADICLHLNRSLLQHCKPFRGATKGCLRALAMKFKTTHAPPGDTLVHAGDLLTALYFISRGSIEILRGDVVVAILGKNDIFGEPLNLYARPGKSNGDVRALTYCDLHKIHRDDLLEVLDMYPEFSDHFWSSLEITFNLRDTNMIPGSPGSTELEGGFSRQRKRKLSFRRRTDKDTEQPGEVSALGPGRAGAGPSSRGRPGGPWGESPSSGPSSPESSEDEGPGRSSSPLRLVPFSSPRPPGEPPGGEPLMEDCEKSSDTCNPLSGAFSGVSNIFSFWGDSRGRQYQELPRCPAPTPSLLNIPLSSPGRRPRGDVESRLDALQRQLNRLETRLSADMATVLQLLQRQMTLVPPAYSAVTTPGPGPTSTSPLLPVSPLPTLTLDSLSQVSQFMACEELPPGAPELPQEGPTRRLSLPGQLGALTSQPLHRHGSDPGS
Description: (§1) Compounds of the invention were tested for inhibition of the human ether a go-go related gene (hERG) K^+ channel using IonWorks patch clamp electrophysiology. 8 Point concentration-response curves were generated on two occasions using 3-fold serial dilutions from the maximum assay concentration (33 uM). Electrophysiological recordings were made from a Chinese Hamster Lung cell line stably expressing the full length hERG channel. Single cell ion currents were measured in the perforated patch clamp configuration (100 ug/mL amphoterocin) at room temperature using an IonWorks Quattro instrument. The internal solution contained 140 mM KCl, 1 mM MgCl2, 1 mM EGTA and 20 mM HEPES and was buffered to pH 7.3. The external solution contained 138 mM NaCl, 2.7 mM KCl, 0.9 mM CaCl2, 0.5 mM MgCl2, 8 mM Na2HPO4 and 1.5 mM KH2PO4, and was buffered to pH 7.3. Cells were clamped at a holding potential of […] for 30 s and then stepped to +40 mV for 1 s. This was followed by a hyperpolarising step of 1 s to […] to evoke the hERG tail current. This sequence was repeated 5 times at a frequency of 0.25 Hz. Currents were measured from the tail step at the 5th pulse, and referenced to the holding current. Compounds were incubated for 6-7 min prior to a second measurement of the hERG signal using an identical pulse train. A minimum of 17 cells were required for each pIC50 curve fit. A control compound (quinidine) was used.

[1] = molecular target: T2, human ether a go-go related gene (hERG) K+ channel (Homo sapiens, UniProt Q12809); assay: hERG assay, IonWorks patch clamp electrophysiology; assay type: cell-based; conditions: Chinese Hamster Lung cell line stably expressing hERG; IonWorks Quattro
T2 construct: a Chinese Hamster Lung cell line stably expressing the full length hERG channel; expressed in transfected cells; host or cells: Chinese Hamster Lung cell line
T2 sequence (Q12809 whole entry): as above
Description: as §1

[2] = Solubility in aqueous solutions (Table 3); assay type: physicochemical; conditions: aqueous solution
Description: The skilled person understands that the pH of the gastrointestinal tract changes along its length. […] For more detail see, for example, Measurement of gastrointestinal pH profiles in normal ambulant human subjects, Gut. […] Improved solubility is expected to result in improved absorption, and therefore improved oral bioavailability.
In an embodiment prodrugs of the invention are administered intravenously. High prodrug solubility is advantageous in order to reduce the volume of solution administered to the patient, and to reduce the risk of damage to the circulatory system. Solubility of >10 mg/mL is preferred.

[3] = Pharmacokinetics: exposure of tonabersat in plasma after oral or intravenous dosing of prodrugs to rats; assay type: in vivo; conditions: fasted male Sprague Dawley rats; for % exposure of tonabersat after dosing the prodrugs of the invention via: Intravenous dosing (iv): compared to equimolar amount of tonabersat (0.78 mg/kg intravenous dosing); for % exposure of tonabersat after dosing the prodrugs of the invention via: Oral dosing (po): compared to equimolar amount of tonabersat (5.00 mg/kg oral dosing)
Description: Example Prodrugs of the claimed invention were dosed either intravenously or orally to fasted male Sprague Dawley rats. The rats underwent surgery for jugular vein cannulation 48 h prior to dosing. Following dosing, 0.25 mL blood samples were taken via the cannulae at 0, 5, 10, 20, 30, 45, 60, 120, 240 & 360 min in EDTA coated tubes. Tubes were spun at 13,000 rpm for 4 min and 100 ul of supernatant taken immediately and stored at −80° C. prior to analysis. Plasma samples were analysed by LC-MS/MS following extraction by protein precipitation, and levels of parent prodrug and tonabersat were measured by MRM (Multiple Reaction Monitoring) analysis against an extracted calibration curve of plasma samples spiked with the Example prodrug and tonabersat.
The exposure of tonabersat in plasma following dosing of the prodrugs of the invention was compared directly to the exposure observed following dosing of an equimolar amount of tonabersat under analogous assay conditions (5.00 mg/kg oral dosing or 0.78 mg/kg intravenous dosing). In an embodiment prodrugs of the present invention have >10% exposure of tonabersat obtained following either oral or intravenous dosing of the prodrug to a human or animal subject, compared to the exposure obtained from dosing an equimolar amount of tonabersat itself. In an embodiment the exposure of tonabersat following dosing of the prodrugs is >20%, or >30%, or >40%, or >50%, or preferably >70% compared to the exposure obtained from dosing an equimolar amount of tonabersat itself.

high K+ evoked CSD [4] = conditions: cats; cited from earlier work
[5] = test system: unique stereo-selective site in rat and human brains; conditions: cited from earlier work
high K+ evoked CSD [6] = conditions: rats; cited from earlier work
[7] = test system: unique stereo-selective site in rat and human brains; conditions: cited from earlier work; remark: listed apart in the source

| Structure (SMILES) | inhibition at 11 µM (hERG K+ channel) [%] | IC50 [1] [µM] | solubility ([2]; aqueous buffer, pH not given) [µg/mL] | % exposure of tonabersat after dosing the prodrugs of the invention via: Intravenous dosing (iv) [3] | % exposure of tonabersat after dosing the prodrugs of the invention via: Oral dosing (po) [3] | also measured |
| --- | --- | --- | --- | --- | --- | --- |
| CC(=O)c1ccc2c(c1)[C@H](NC(=O)c1ccc(F)c(Cl)c1)[C@H](OC(=O)OCCN(C)C)C(C)(C)O2 [Example 1, (3S,4S)-6-Acetyl-4-[(3-chloro-4-fluorobenzene)amido]-2,2-dimethyl-3,4-dihydro-2H-1-benzopyran-3-yl 2-(dimethylamino)ethyl carbonate] | 25 | > 20 | < 1000 | – | – | – |
| CC(=O)c1ccc2c(c1)[C@H](NC(=O)c1ccc(F)c(Cl)c1)[C@H](OC(=O)OCCN1CCOCC1)C(C)(C)O2 [Example 4, (3S,4S)-6-Acetyl-4-[(3-chloro-4-fluorobenzene)amido]-2,2-dimethyl-3,4-dihydro-2H-1-benzopyran-3-yl 2-(morpholin-4-yl)ethyl carbonate] | – | 9.8 | < 1000 | – | – | – |
| CC(=O)c1ccc2c(c1)[C@H](NC(=O)c1ccc(F)c(Cl)c1)[C@H](OC(=O)OC[C@H](N)C(=O)O)C(C)(C)O2.Cl [Example 5, (2S)-3-[({[(3S,4S)-6-Acetyl-4-[(3-chloro-4-fluorobenzene)amido]-2,2-dimethyl-3,4-dihydro-2H-1-benzopyran-3-yl]oxy}carbonyl)oxy]-2-aminopropanoic acid hydrochloride] | – | – | – | 37% | 39% | – |
| CC(=O)c1ccc2c(c1)[C@H](NC(=O)c1ccc(F)c(Cl)c1)[C@H](OC(=O)N[C@H](C(=O)O)C(C)C)C(C)(C)O2 [Example 8, (2S)-2-[({[(3S,4S)-6-Acetyl-4-[(3-chloro-4-fluorobenzene)amido]-2,2-dimethyl-3,4-dihydro-2H-1-benzopyran-3-yl]oxy}carbonyl)amino]-3-methylbutanoic acid] | – | – | < 1000 | <LLOQ | <LLOQ | – |
| CC(=O)c1ccc2c(c1)[C@H](NC(=O)c1ccc(F)c(Cl)c1)[C@H](OC(=O)N[C@@H](CCCCN)C(=O)O)C(C)(C)O2.Cl [Example 9, (2S)-2-[({[(3S,4S)-6-acetyl-4-[(3-chloro-4-fluorobenzene)amido]-2,2-dimethyl-3,4-dihydro-2H-1-benzopyran-3-yl]oxy}carbonyl)amino]-6-aminohexanoic acid hydrochloride] | 8 | – | – | <LLOQ | <LLOQ | solubility ([2]; pH 4.9, aqueous buffer): 10000 µg/mL |
| CC(=O)c1ccc2c(c1)[C@H](NC(=O)c1ccc(F)c(Cl)c1)[C@H](OC(=O)N1CCC(N3CCCCC3)CC1)C(C)(C)O2.Cl [Example 18, (3S,4S)-6-Acetyl-4-[(3-chloro-4-fluorobenzene)amido]-2,2-dimethyl-3,4-dihydro-2H-1-benzopyran-3-yl 4-(piperidin-1-yl)piperidine-1-carboxylate hydrochloride] | 28 | – | – | <LLOQ | <LLOQ | solubility ([2]; pH 6.3, aqueous buffer): > 10000 µg/mL |
| CC(=O)c1ccc2c(c1)[C@H](NC(=O)c1ccc(F)c(Cl)c1)[C@H](OC(=O)OCCN1CCCCC1)C(C)(C)O2 [Example 30, (3S,4S)-6-Acetyl-4-[(3-chloro-4-fluorobenzene)amido]-2,2-dimethyl-3,4-dihydro-2H-1-benzopyran-3-yl 2-(piperidin-1-yl)ethyl carbonate] | – | 7 | – | – | – | – |
| CC(=O)c1ccc2c(c1)[C@H](NC(=O)c1ccc(F)c(Cl)c1)[C@H](O)C(C)(C)O2 [Tonabersat, N-[(3S,4S)-6-Acetyl-3-hydroxy-2,2-dimethyl-3,4-dihydro-2H-1-benzopyran-4-yl]-3-chloro-4-fluorobenzamide] | – | – | – | – | – | inhibition of high K+ evoked CSD (high K+ evoked CSD [4]): inhibits; binding affinity to brain site [5]: high affinity; inhibition of high K+ evoked CSD (high K+ evoked CSD [6]): inhibits; binding affinity to brain site [7]: high affinity |
